Data on 9 compounds can be found in patent publication US12509421B2, “Preparation and application of deuterated 4-phenyl-4-piperidinols” (priority 2022, dated 2025).

The subject of one series is ICR mice. The series can be described thus: Evaluation of side effects of constipation (defecation time, number, weight). It is filed as in vivo. The settings on record: 7.5 mg/kg. The procedure:
Constipation side effect is a common side effect of opioid drugs. This patent evaluates the possibility of constipation side effect by the influence of the compound on defecation time, defecation quantity and defecation weight of experimental animals.
ICR mice are randomly divided into 6 groups with 10 mice in each group after adaptive feeding. Fasting for 16-24 h, without stopping drinking, the blank control group is given solvent, during which the normal diet is: (1) the blank control group; (2) Compound diphenoxylate (7.5 mg/kg) group; (3) Low dose (1 mg/kg) group; (4) High dose (5 mg/kg) group of the compound to be tested.
After administration for 30 minutes, the mice in each group are given Chinese ink by gavage. After administration, the mice are kept in a single cage, and the excretion time of the first black stool is recorded. The number and weight (wet weight) of defecation particles in each mouse within 5 hours after administration are recorded. each group of mice are placed in an IVC cage with clean filter paper. The feces of each mouse are collected, put into a sterile 1.5 ml EP tube and stored in an ice box. During the collection, the number of defecation particles of each mouse is recorded, and the wet weight is weighed. After the collected feces are dried, the dry weight of the feces is recorded. Drying conditions: put fresh feces in an oven and bake at 100° C. for 5-10 minutes until the dry weight of feces is constant. The following formula is used to calculate the water content of feces, and the water content of feces (%)=(wet feces mass−dry feces mass)/wet feces mass×100%.
The data required for measurement and observation in this experiment are recorded in the corresponding table. All data are statistically processed by Microsoft Excel, and expressed as “mean standard error”. The data of each group are statistically analyzed by SPSS software package.

A further series addresses T1, μOR (Homo sapiens, UniProt P35372).
T1 construct: expressed in transfected cells; host or cells: CHO cells
The series can be described thus: Opioid receptor competitive binding test, μOR. The settings on record: [3H]-labeled ligand, CHO cell membranes, ± SD of three measurements; for μOR binding rate: compound at 10 μM. The procedure: (§1) CHO cells expressing p opioid receptor, δ opioid receptor and K opioid receptor are cultured in a 10 cm^2 Petri dish (F-12 medium+10% newborn bovine serum) for several days, and the culture solution is sucked after the cells grew to the bottom of the dish. 3 ml PBS/EDTA solution (0.1M NaCl, 0.01M NaH2PO4, 0.04% EDTA) is added for digestion for 3-5 minutes. The cells are blown with a straw to get fall off completely, collected in a 40 ml centrifuge tube, centrifuged at 5000 rpm for 5 minutes, and removed with the supernatant. The centrifuge tube is added with ice-cold homogenate (50 mM HEPES PH 7.4, 3 mM MgCl2, 1 mM EGTA). The solution and precipitate are transferred to homogenizer for homogenization; Then the homogenate is transferred into a centrifuge tube, centrifuged at 18000 rpm for 15 minutes, and centrifuged twice; the obtained precipitate is added with an appropriate amount of buffer solution of 50 mM Tris-HCl and pH 7.4, homogenized and sub-packaged in centrifuge tubes. The product is stored in a refrigerator at −70° C. for later use.
(§2) 20-30 μg expressed membrane receptor protein and [3H]-labeled ligand (1-2 nM) are added to the total binding tube, added with 1 μM of corresponding ligand to the corresponding nonspecific binding tube. Various screened opioid ligand drugs (see the drug compounds in Table 1 below) are added to the sample tube with 100 μL final volume. The sample is incubated at 30° C. for 30 minutes, and the reaction is terminated in ice water. The glass fiber filter paper gF/C (whatman) is used for negative pressure filtration on Millipore sample collector. The sample is eluted with 4 ml 50 mm tris-HCl (pH 7.4) for three times, dried with the filter paper, put in 0.5 ml Eppendorf tube and added with 0.5 ml lipophilic scintillation liquid. The radioactive intensity is measured with PERKIN ELMER PRI-CARB 2910 liquid scintillation counter with calculation of the inhibition rate. The experiment is repeated for more than three times, with three compound tubes in each group. Inhibition rate(or binding rate)=(total binding rate dpm−sample tube dpm)/(total binding tube dpm-nonspecific binding tube dpm)×100%
(§3) IC50 is calculated with Prism 5.0 software. The Ki value is calculated according to the following formula: Ki=IC50/(1^+[L]/Kd), wherein [L] is the concentration of the added labeled ligand, and Kd is the equilibrium dissociation parameter of the labeled ligand.

A further series concerns the target T2, κOR (Homo sapiens, UniProt P41145).
T2 construct: expressed in transfected cells; host or cells: CHO cells
Nature of the series: Opioid receptor competitive binding test, κOR. Conditions: [3H]-labeled ligand, CHO cell membranes, ± SD of three measurements; for κOR binding rate: compound at 10 μM. The procedure: as §1, §2, §3

The next series deals with T3, δOR (Homo sapiens, UniProt P41143).
T3 construct: expressed in transfected cells; host or cells: CHO cells
Nature of the series: Opioid receptor competitive binding test, δOR. The settings on record: [3H]-labeled ligand, CHO cell membranes, ± SD of three measurements; for δOR binding rate: compound at 10 μM. The procedure: as §1, §2, §3

In another series the target is hERG potassium channel (Homo sapiens, UniProt Q12809). The series can be described thus: hERG potassium channel whole-cell patch clamp (HEK293). Conditions: for IC50: HEK293 cells stably expressing hERG, whole-cell patch clamp, room temperature, read-out: Half-inhibition concentration of compounds to be tested on hERG (IC50). It is filed as cell-based. On the set-up: expressed in transfected cells; host or cells: HEK293 cell line. From the text: The rapidly activated potassium channel encoded by human ether-a-go-go-related gene (hERG) is an important ion channel involved in the formation of phase 3 repolarization of myocardial action potential. […] Drug-induced delayed ventricular repolarization may cause fatal arrhythmia-torsade de pointes in some cases. According to statistics, about 25-40% of the lead compounds show different degrees of hERG-related toxicity, and many drugs are withdrawn from the market because they may lead to the risk of QT interval extension. At present, National Medical Products Administration also requires hERG/IKr safety evaluation data before clinical trial application (IND) of new drugs under study. • 1. Whole-cell patch clamp technique is used to study the inhibitory effect of compounds on hERG potassium channels: • 1) the compound to be tested is stored with physiological saline prepared into 10 mM liquid. The test stock solution is diluted with physiological saline into 3 mM, 1 mM and 0.3 mM diluents in turn. […] The old culture medium removed and is washed once with PBS, then added with 1 mL TrypLE™ Express solution and incubated at 37° C. for about 0.5 minutes. When the cells are detached from the bottom of the dish, about 5 ml complete medium preheated is added at 37° C. The cell suspension is gently blown with a straw to separate the aggregated cells. The cell suspension is transferred to a sterile centrifuge tube and centrifuged at 1000 rpm for 5 minutes to collect cells. […] The clamping voltage is depolarized from −80 mV to −50 mV for 0.5 seconds (as leakage current detection), then stepped to 30 mV for 2.5 seconds, and then quickly recovered to −50 mV for 4 seconds, which can excite the tail current of hERG channel. Data are collected repeatedly every 10s to observe the effect of drugs on hERG tail current. 0.5 seconds-50 mV stimulation is used as leakage current detection. The test data are collected by IPA amplifier (Sutter Instrument) and stored in SutterPatch software.
Capillary glass tube is drawn into recording electrode by microelectrode drawing instrument. Under the inverted microscope, the microelectrode manipulator is operated to contact the recording electrode with the cell, and negative pressure suction is given to form a GΩ seal. After the GΩ seal is formed, rapid capacitance compensation is carried out, and then negative pressure is continuously applied to break the cell membrane, forming a whole cell recording mode. Then the slow capacitance is compensated and the film capacitance and series resistance are recorded. No leakage compensation is given.
When the hERG current recorded in the whole cell is stable, the drug is administered, and the next concentration is detected after each drug concentration acts for 5 minutes (or the current is stable), and multiple concentrations are detected for each test compound. The cover glass covered with cells is placed in the recording bath in an inverted microscope, and the test compound and the external liquid containing no compound flowed through the recording bath from low concentration to high concentration by gravity perfusion method, so as to act on the cells, and liquid exchange is carried out by using a vacuum pump during recording. The current detected by each cell in the external fluid without compounds is used as its own control group.
At least two cells are used to detect each concentration independently and repeatedly twice. All electrophysiological tests are conducted at room temperature.
Firstly, the current after each drug concentration and the blank control current are standardized
[formula] followed by the calculation of the inhibition rate
[formula] corresponding to each drug concentration, the average and standard deviation for each concentration, and the semi-inhibition concentration of each compound with the following equation: […]
The dose-dependent effect is nonlinear fitted by the above equation, and IC50 is semi-inhibitory concentration.
(In general: hERG is a cardiac potassium channel; its block is linked to QT prolongation.)

For the next series, the system named is Female Kunming mice. Nature of the series: Hot plate analgesia test in mice. It is filed as in vivo. Conditions: 55° C. hot plate. Here is the method: Female Kunming mice weighing about 20 g are placed on a hot plate instrument preheated to 55° C., and the latency of licking hind feet or lifting hind feet is used as the pain threshold index. Animals are screened before the experiment, and animals with latency less than 5 s or more than 30 s are excluded. To prevent foot burns, the longest observation time is set to 60s. The basic pain threshold is the average of two measurements, and the interval between the two measurements is 5 minutes. The pain threshold of mice in each group is determined at 15 minutes, 30 minutes, 60 minutes and 120 minutes after intraperitoneal administration. The effective percentage of analgesia (% MPE) is calculated according to the following formula
[formula] According to the effective percentage of analgesia, the ED50 value is calculated by graphpad prism 5.0 software.

Counter-ions that a name gives are not always drawn. Like-named read-outs stand apart in the source and are kept apart here.

For the compound `CCOC(=O)C1(c2ccccc2)CCN(CCC(C#N)(c2ccccc2)c2ccccc2)CC1` [Diphenoxylate, reference compound], the “Number of defecating animals” value in the series on ICR mice (10 mice per group, within 5 hours) worked out at 10. In the series on ICR mice (first black stool, x ± SE, only animals that defecate within 5 hours), the Defecation time is 148.4 ± 7.9 min. Besides, in the series with ICR mice (only animals that defecate within 5 hours, x ± SE), the “water content of feces” value was found to be 41.4 ± 3.7%. The compound further showed a Fecal weight in the series on ICR mice (within 5 hours, x ± SE) of 0.3005 ± 0.0289 g.
Consider `CN(C)C[C@@H]1CN(S(=O)(=O)Cc2ccccc2)CC[C@@]1(O)c1cccc(O)c1.Cl` [Example 22 of CN201911076305.X, (3R, 4S)-1-(benzylsulfonyl)-3-(dimethylamino)methyl)-4-(3-hydroxyphenyl)-4-piperidinol hydrochloride, reference compound], for which the Ki turned out to be 0.17 nM on μOR, 33.7 ± 3.26 nM at κOR and 1100 ± 42 nM at δOR.
For the compound `CN(C)C[C@@H]1CN(S(=O)(=O)Cc2ccccc2)CC[C@@]1(O)c1cccc(O)c1.Cl` [Example 22 of CN201911076305.X, reference compound], the “hERG inhibition grade” value is given as “moderate inhibitory effects on hERG” at hERG potassium channel (listed as Example 22 of patent CN201911076305.X, hydrochloride) and “μM(Moderate intensity inhibition)” at hERG potassium channel (listed as example 22 of the prior art of CN201911076305.X, hydrochloride).
For `[2H]C([2H])([2H])Oc1cccc(C2(O)CCN(S(=O)(=O)Cc3ccccc3)CC2CN(C)C([2H])([2H])[2H])c1` (centres unmarked) [I-2hydrochloride], the “Maximum analgesic effective percentage (% MPE), hot plate” value with Female Kunming mice (10 mg/kg, intraperitoneal) is 100%. Besides, at μOR, the μOR binding rate worked out at 24.75 ± 3.1%. The compound also showed a κOR binding rate on κOR of 23.8 ± 1.9%. On δOR, this compound gave a δOR binding rate of 10.9 ± 1.2%.
The matching figures for `[2H]C([2H])([2H])Oc1cccc(C2(O)CCN(C(=O)Cc3cc(F)c(F)cc3F)CC2CN(C)C([2H])([2H])[2H])c1` (centres unmarked) [I-6hydrochloride]: 100%, 21.0 ± 3.0%, 20.5 ± 2.3% and 11.6 ± 1.7%.
Turning to `[2H]C([2H])([2H])Oc1cccc([C@]2(O)CCN(S(=O)(=O)Cc3ccccc3)C[C@H]2CN(C)C([2H])([2H])[2H])c1` [II-6hydrochloride], it took a dose of 0.79 mg/kg to reach the 50% effect level in the series on Female Kunming mice (Mus musculus, ip, intraperitoneal) (ED50). On μOR, this compound showed a μOR binding rate of 28.4 ± 2.0%. This compound also had a κOR binding rate on κOR of 14.5 ± 3.1%. Further, the δOR binding rate on δOR turned out to be 10.5 ± 1.7%.
As for `[2H]C([2H])([2H])Oc1cccc([C@]2(O)CCN(C(=O)Cc3cc(F)c(F)cc3F)C[C@H]2CN(C)C([2H])([2H])[2H])c1` [II-12hydrochloride], in the series on Female Kunming mice (10 mg/kg, intraperitoneal), the “Maximum analgesic effective percentage (% MPE), hot plate” value was 100%. For the same compound, on μOR, the μOR binding rate is 26.3 ± 1.2%. Further, on κOR, the κOR binding rate is recorded as 13.6 ± 1.9%. For the same compound, the δOR binding rate on δOR was 12.0 ± 3.3%.
For `COc1cccc(C2(O)CCCCC2CN(C)C)c1` (centres unmarked) [Tramadol, reference compound], in the series with Female Kunming mice (50 mg/kg dosage), the “Maximum analgesic effective percentage (% MPE), hot plate” value is listed as 64.5% ((50 mg/kg/dosage). The compound also registered a μOR binding rate at μOR of 6.0 ± 0.4%. Also, the κOR binding rate at κOR is given as 0%. Also, the δOR binding rate on δOR was 0%.
Take “(3R,4S)-1-(benzylsulfonyl)-4-(3-hydroxyphenyl)-3-(((methyl(methyl-d3)amino)methyl)-4-piperidinol [II-2hydrochloride]”: the Ki is 0.12 nM at μOR, 25.6 ± 2.72 nM on κOR and 482 ± 28.4 nM at δOR. Besides, on hERG potassium channel, the “hERG inhibition grade” value is reported as “μM((Weak inhibition)”. The IC50 at hERG potassium channel (listed as II-2) was 25100 nM; at hERG potassium channel (listed as Il-2hydrochloride), 14700 nM.

For orientation: Ki means the equilibrium dissociation constant of an inhibitor or competing ligand from its target. One may read the ED50 as the dose that gives a 50% effect, or the effect in half of the subjects.
